{"source": "ChEMBL document CHEMBL3988442", "about": "“University of Dundee, Small-Polar-MMV Screening Library” (2021)", "key": {"Proteasome subunit beta": {"molecular_target": "T1, Proteasome subunit beta (Trypanosoma cruzi, UniProt O96673)", "T1 sequence (O96673 whole entry)": "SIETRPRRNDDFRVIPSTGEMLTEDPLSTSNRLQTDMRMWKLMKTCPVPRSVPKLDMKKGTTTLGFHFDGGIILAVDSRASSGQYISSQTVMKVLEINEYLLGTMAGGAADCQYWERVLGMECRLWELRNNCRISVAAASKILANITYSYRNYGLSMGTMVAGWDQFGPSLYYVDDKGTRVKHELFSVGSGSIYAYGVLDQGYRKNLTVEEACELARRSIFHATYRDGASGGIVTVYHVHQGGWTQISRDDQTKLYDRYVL", "assay": "Trypanosoma cruzi proteasome chymotrypsin-like activity (TcProtChymo) assay.", "assay_type": "functional"}, "[1]": {"assay": "Trypanosoma cruzi proteasome luciferase counter-screen", "assay_type": "functional, N/A"}, "Schistosoma mansoni": {"tested_on": "Schistosoma mansoni", "assay": "High throughput screening of compounds against Schistosoma mansoni motility", "assay_type": "functional", "set-up": "dose or concentration left out as unconfirmed"}, "[2]": {"assay": "To identify inhibition of the IFN signalling (Jak-Stat) pathway via expression of an eGFP reporter gene under the control of an IFN-stimulated response element (ISRE) containing MxA promoter.", "assay_type": "functional, Homo sapiens"}, "Leishmania donovani": {"tested_on": "Leishmania donovani", "assay": "Leishmania intramacrophage assay", "assay_type": "functional, organism-based", "details": "for IC50: Leishmania donovani"}, "[3]": {"assay": "In vitro enzyme assay to detect hydrolysis of chlorophenol red-beta-D-[…] directly proportional to the number of Toxoplasma stably expressing beta-galactosidase", "assay_type": "functional, organism-based, Toxoplasma gondii", "details": "Toxoplasma gondii"}, "[4]": {"molecular_target": "Chromo domain-containing protein 1 (Saccharomyces cerevisiae (strain ATCC 204508 / S288c) (Baker's yeast), UniProt P32657)", "sequence (P32657 whole entry, the tested form may be a part)": "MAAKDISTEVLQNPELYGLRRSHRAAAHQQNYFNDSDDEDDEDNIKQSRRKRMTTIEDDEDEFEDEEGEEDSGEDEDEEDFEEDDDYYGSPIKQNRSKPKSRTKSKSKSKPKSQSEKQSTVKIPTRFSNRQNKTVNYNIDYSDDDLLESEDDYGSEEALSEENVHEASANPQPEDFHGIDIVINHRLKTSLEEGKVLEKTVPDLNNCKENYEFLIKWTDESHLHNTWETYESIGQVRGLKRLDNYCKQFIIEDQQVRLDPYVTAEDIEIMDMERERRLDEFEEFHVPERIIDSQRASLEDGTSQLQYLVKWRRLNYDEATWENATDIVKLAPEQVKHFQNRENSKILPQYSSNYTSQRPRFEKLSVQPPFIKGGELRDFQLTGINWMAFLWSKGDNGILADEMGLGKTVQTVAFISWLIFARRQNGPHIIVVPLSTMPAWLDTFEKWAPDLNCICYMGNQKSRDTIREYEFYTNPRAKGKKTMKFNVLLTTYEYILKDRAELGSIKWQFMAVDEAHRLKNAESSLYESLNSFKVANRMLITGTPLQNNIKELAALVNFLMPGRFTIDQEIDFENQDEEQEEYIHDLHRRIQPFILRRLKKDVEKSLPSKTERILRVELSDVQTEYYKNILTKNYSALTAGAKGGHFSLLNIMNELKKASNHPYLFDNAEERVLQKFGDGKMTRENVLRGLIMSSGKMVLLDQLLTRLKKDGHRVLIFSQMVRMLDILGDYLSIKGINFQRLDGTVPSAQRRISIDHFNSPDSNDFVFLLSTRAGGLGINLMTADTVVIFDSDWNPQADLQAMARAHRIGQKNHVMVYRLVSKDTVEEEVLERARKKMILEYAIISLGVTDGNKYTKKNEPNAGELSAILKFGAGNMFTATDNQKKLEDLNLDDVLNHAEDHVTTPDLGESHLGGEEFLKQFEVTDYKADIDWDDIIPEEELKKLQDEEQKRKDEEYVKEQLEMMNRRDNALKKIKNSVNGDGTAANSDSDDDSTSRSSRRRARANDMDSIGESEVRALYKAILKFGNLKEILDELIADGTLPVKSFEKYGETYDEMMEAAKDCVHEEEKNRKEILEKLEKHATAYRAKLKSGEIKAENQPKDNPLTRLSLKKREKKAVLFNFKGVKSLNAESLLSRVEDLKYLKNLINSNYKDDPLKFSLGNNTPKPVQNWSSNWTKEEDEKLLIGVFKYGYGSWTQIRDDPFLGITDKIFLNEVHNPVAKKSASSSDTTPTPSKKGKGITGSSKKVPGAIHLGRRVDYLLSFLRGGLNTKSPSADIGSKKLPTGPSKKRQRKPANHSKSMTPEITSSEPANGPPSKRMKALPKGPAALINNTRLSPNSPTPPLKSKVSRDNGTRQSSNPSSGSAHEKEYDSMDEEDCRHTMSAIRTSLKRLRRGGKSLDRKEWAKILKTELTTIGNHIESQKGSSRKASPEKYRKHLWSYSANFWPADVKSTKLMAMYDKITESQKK", "assay": "ScCHD-1 Enzyme Inhibition Assay", "assay_type": "functional"}, "[5]": {"molecular_target": "AMP-activated protein kinase, AMPK", "assay": "AMP-dependent Kinase enzyme assay. An in vitro enzyme assay that detects ADP turnover that is directly proportional to AMPK activity. This uses naive AMPK that is activated during the assay with MK-8722", "assay_type": "functional, Homo sapiens"}, "Plasmodium falciparum": {"tested_on": "Plasmodium falciparum", "assay": "Calibr Malaria Delayed Death Assay SOP", "assay_type": "functional, organism-based"}, "Trypanosoma brucei": {"tested_on": "Trypanosoma brucei", "assay": "Trypanosoma brucei 72 hour study", "assay_type": "functional, organism-based"}, "ClpP1P2": {"molecular_target": "ClpP1P2 (Mycobacterium tuberculosis (strain ATCC 25618 / H37Rv), UniProt P9WPC3+P9WPC5)", "sequence (P9WPC5 whole entry)": "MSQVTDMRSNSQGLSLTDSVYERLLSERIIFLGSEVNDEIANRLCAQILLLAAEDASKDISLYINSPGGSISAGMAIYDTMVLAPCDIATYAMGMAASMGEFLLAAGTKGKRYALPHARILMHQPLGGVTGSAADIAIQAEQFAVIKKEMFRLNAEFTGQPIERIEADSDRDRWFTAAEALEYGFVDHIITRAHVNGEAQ", "sequence (P9WPC3 whole entry)": "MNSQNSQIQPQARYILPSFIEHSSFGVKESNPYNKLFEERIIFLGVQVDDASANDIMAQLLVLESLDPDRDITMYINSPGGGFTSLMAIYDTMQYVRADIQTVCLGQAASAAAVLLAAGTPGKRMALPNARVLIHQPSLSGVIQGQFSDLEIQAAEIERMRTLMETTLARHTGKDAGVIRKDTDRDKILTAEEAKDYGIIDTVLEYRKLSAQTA", "assay": "in vitro assay to detect presence of AMC directly proportional to the activity of ClpP1P2. GHDDI collaboration.", "assay_type": "functional"}}, "note": "Where “and” joins values, the source holds several entries; their conditions need not be identical. Equal entries are not always repeated.", "data": [{"smiles": "O=C(Nc1ccc(F)c(Br)c1)N1CCCC1", "values": [{"measurement": "IC50", "setting": "Proteasome subunit beta", "value": "11.4 µM and 11.2 µM"}, {"measurement": "pIC50", "setting": "[1]", "value": "< 4"}]}, {"smiles": "NC(=O)c1nc(COc2ccc3c(c2)OCO3)no1", "values": [{"measurement": "IC50", "setting": "Proteasome subunit beta", "value": "8.85 µM and 10.5 µM"}, {"measurement": "pIC50", "setting": "[1]", "value": "< 4"}]}, {"smiles": "CN1C(=O)C(C)(C)COc2cc(NS(=O)(=O)Cc3ccccc3)ccc21", "values": [{"measurement": "Percent Effect", "setting": "Schistosoma mansoni", "value": 31.95, "unit": "%"}, {"measurement": "pIC50", "setting": "[2]", "value": "< 4.21 and 4.593"}]}, {"smiles": "CC(C)c1cc2c(O)nc(CSCC(=O)O)nc2s1", "values": [{"measurement": "IC50", "setting": "Proteasome subunit beta", "value": "7.28 µM and 8.24 µM"}, {"measurement": "pIC50", "setting": "[1]", "value": "4.494 and 4.54"}]}, {"smiles": "COc1cccc(-c2nc(C)c(C(=O)NC(CO)CCSC)s2)c1", "note": "(stereo not drawn)", "values": [{"measurement": "IC50", "setting": "Proteasome subunit beta", "value": "27.3 µM and 32.3 µM"}, {"measurement": "pIC50", "setting": "[1]", "value": 4.212}]}, {"smiles": "COc1ccccc1CNC(=O)C1=NN(c2ccc(C)cc2)C(=O)CN1", "values": [{"measurement": "pIC50", "setting": "Leishmania donovani", "value": "< 4.3 and 4.742"}, {"measurement": "pIC50", "setting": "[2]", "value": "4.606 and 4.808"}, {"measurement": "IC50", "setting": "[3]", "value": 10.8, "unit": "µM"}]}, {"smiles": "O=C(c1cn(-c2ccccc2Cl)nn1)N1CCCSCC1", "values": [{"measurement": "IC50", "setting": "Proteasome subunit beta", "value": "14.2 µM and 16.4 µM"}, {"measurement": "pIC50", "setting": "[1]", "value": "4.282 and 4.315"}]}, {"smiles": "CNC(=O)c1cnc(/C=C/c2ccc(OC)c(O)c2)s1", "values": [{"measurement": "IC50", "setting": "Proteasome subunit beta", "value": "17.4 µM and 13.8 µM"}, {"measurement": "pIC50", "setting": "[1]", "value": "4.132 and < 4"}]}, {"smiles": "CCCC(NC(=O)c1cc(C)n(C2CC2)c1C)c1nnn[nH]1", "note": "(stereo not drawn)", "values": [{"measurement": "IC50", "setting": "Proteasome subunit beta", "value": "55.7 µM and 67.9 µM"}, {"measurement": "pIC50", "setting": "[1]", "value": "< 4"}]}, {"smiles": "CCc1nc(COc2ccc(OCc3cnn(C)c3)cc2)no1", "values": [{"measurement": "IC50", "setting": "Proteasome subunit beta", "value": "12.3 µM and 13.3 µM"}, {"measurement": "pIC50", "setting": "[1]", "value": "4.267 and 4.334"}]}, {"smiles": "Cc1cnn(CC2CCCN2CC(=O)N(C)Cc2ccc(C)o2)c1", "note": "(stereo not drawn)", "values": [{"measurement": "IC50", "setting": "Proteasome subunit beta", "value": "> 100", "unit": "µM"}, {"measurement": "pIC50", "setting": "[1]", "value": "< 4"}]}, {"smiles": "Cn1cc(-c2csc(N3CCN(C(=O)OC(C)(C)C)CC3)n2)cn1", "values": [{"measurement": "Percent Effect", "setting": "Schistosoma mansoni", "value": -8.994, "unit": "%"}, {"measurement": "pIC50", "setting": "[2]", "value": "4.669 and 4.891"}]}, {"smiles": "Cc1ccc(-c2cc(C(=O)NC(C)C(=O)N3CCCCC3)on2)cc1", "note": "(stereo not drawn)", "values": [{"measurement": "IC50", "setting": "Proteasome subunit beta", "value": "26.1 µM and 26.7 µM"}, {"measurement": "pIC50", "setting": "[1]", "value": "4.246 and 4.264"}]}, {"smiles": "CN(C(=O)Cc1ccc(NC(=O)NC2CCC2)cc1)c1ccccc1", "values": [{"measurement": "IC50", "setting": "Proteasome subunit beta", "value": "> 100", "unit": "µM"}, {"measurement": "pIC50", "setting": "[1]", "value": "< 4"}]}, {"smiles": "COc1cc(CN(C)C(=O)Cc2c(C)nn(C)c2C)ccc1OC(F)F", "values": [{"measurement": "Percent Effect", "setting": "Schistosoma mansoni", "value": -34.16, "unit": "%"}, {"measurement": "pIC50", "setting": "[2]", "value": "5.786 [middle of 4 runs]"}]}, {"smiles": "N#Cc1c(F)cccc1N1CCN(S(=O)(=O)c2cccs2)CC1", "values": [{"measurement": "Percent Effect", "setting": "Schistosoma mansoni", "value": 35.72, "unit": "%"}, {"measurement": "IC50", "setting": "[4]", "value": "> 29.5", "unit": "µM"}, {"measurement": "pIC50", "setting": "[2]", "value": "4.537 and 4.564"}]}, {"smiles": "Cc1cnn(CC2CN(c3ncnc4ccsc34)CCO2)c1", "note": "(stereo not drawn)", "values": [{"measurement": "IC50", "setting": "Leishmania donovani", "value": "> 50.1", "unit": "µM"}, {"measurement": "pIC50", "setting": "[2]", "value": "5.764 [middle of 4 runs]"}]}, {"smiles": "O=C(CC1CN(Cc2ccccc2)CCO1)Nc1ccccc1F", "note": "(stereo not drawn)", "values": [{"measurement": "IC50", "setting": "Proteasome subunit beta", "value": "12.6 µM and 13.6 µM"}, {"measurement": "pIC50", "setting": "[1]", "value": "4.434 and 4.445"}]}, {"smiles": "CC(C)n1ccc(-c2cc(C(=O)N3CCCC3)c3ccccn23)n1", "values": [{"measurement": "pIC50", "setting": "[2]", "value": "< 4.21"}, {"measurement": "pIC50", "setting": "[5]", "value": "< 4"}]}, {"smiles": "Cn1cccc1C(=O)N1CCC2(CC1)CN(c1cncnc1)C(=O)CO2", "values": [{"measurement": "IC50", "setting": "Proteasome subunit beta", "value": "> 100", "unit": "µM"}, {"measurement": "pIC50", "setting": "[1]", "value": "< 4"}]}, {"smiles": "Cc1nc[nH]c1CN(C)CC1CCCN(CCc2ccc(Cl)cc2)C1", "note": "(stereo not drawn)", "values": [{"measurement": "Percent Effect", "setting": "Schistosoma mansoni", "value": 102.7, "unit": "%"}, {"measurement": "pIC50", "setting": "Plasmodium falciparum", "value": 6.162}, {"measurement": "IC50", "setting": "Plasmodium falciparum; Plasmodium falciparum", "value": 0.565, "unit": "µM"}, {"measurement": "pIC50", "setting": "Leishmania donovani", "value": 5.148}, {"measurement": "IC50", "setting": "Leishmania donovani", "value": 8.56, "unit": "µM"}, {"measurement": "pIC50", "setting": "[2]", "value": "4.612 and 4.41"}, {"measurement": "pIC50", "setting": "Trypanosoma brucei", "value": "5.168 and 5.164"}, {"measurement": "IC50", "setting": "Trypanosoma brucei; Trypanosoma brucei, 72 h", "value": 6.79, "unit": "µM"}]}, {"smiles": "Cc1cc(C(=O)N2CCC3(CCCN(CC4CC4)C3=O)C2)c(C)n1C", "note": "(stereo not drawn)", "values": [{"measurement": "IC50", "setting": "Proteasome subunit beta", "value": "> 100 µM and 85.7 µM"}, {"measurement": "pIC50", "setting": "[1]", "value": "< 4"}]}, {"smiles": "COCC1CCCN(C(=O)c2cc(Cn3ccc4ccccc43)[nH]n2)C1", "note": "(stereo not drawn)", "values": [{"measurement": "IC50", "setting": "[4]", "value": "> 29.5 µM and 18.8 µM"}, {"measurement": "pIC50", "setting": "[2]", "value": "< 4.21"}]}, {"smiles": "CC(C)=CCN1C[C@H]2CC[C@@H]1CN(C(=O)c1c[nH]c(=O)c(Cl)c1)C2", "values": [{"measurement": "IC50", "setting": "Proteasome subunit beta", "value": "> 100", "unit": "µM"}, {"measurement": "pIC50", "setting": "[1]", "value": "< 4"}]}, {"smiles": "O=C(c1ccc(C2CCCO2)s1)N1Cc2ccccc2C1", "note": "(stereo not drawn)", "values": [{"measurement": "IC50", "setting": "Proteasome subunit beta", "value": "16.1 µM and 11.4 µM"}, {"measurement": "pIC50", "setting": "[1]", "value": "4.241 and < 4"}]}, {"smiles": "Cc1ccc(C(=O)Nc2cc(C(C)C)n[nH]2)cn1", "values": [{"measurement": "pIC50", "setting": "[2]", "value": "4.606 and 4.922"}]}, {"smiles": "COc1cccc(CN2CCN(c3ccc4nncn4n3)C(C)C2)c1", "note": "(stereo not drawn)", "values": [{"measurement": "pIC50", "setting": "[2]", "value": "4.923 and 4.922"}]}, {"smiles": "CNS(=O)(=O)Cc1ccc(CNc2cncc(-n3cccn3)n2)cc1", "values": [{"measurement": "IC50", "setting": "Proteasome subunit beta", "value": "10.5 µM and 10.6 µM"}, {"measurement": "pIC50", "setting": "[1]", "value": "4.398 and 4.427"}, {"measurement": "IC50", "setting": "ClpP1P2", "value": "> 100", "unit": "µM"}]}, {"smiles": "COc1ncccc1NC(=O)N(Cc1ccc(C)o1)C1CC1", "values": [{"measurement": "pIC50", "setting": "[2]", "value": "4.53 and 4.637"}]}, {"smiles": "CCOCCCn1c(NC(=O)c2scnc2C)nc2ccccc21", "values": [{"measurement": "IC50", "setting": "[4]", "value": "> 29.5", "unit": "µM"}, {"measurement": "pIC50", "setting": "[2]", "value": "4.523 and 4.463"}]}, {"smiles": "O=C1NCCN1C1CCCN(Cc2coc(-c3ccc(F)cc3)n2)C1", "note": "(stereo not drawn)", "values": [{"measurement": "pIC50", "setting": "[2]", "value": "4.93 and 4.918"}]}, {"smiles": "CC(C)c1nc(C2CCCN(C(=O)CCCn3cncn3)C2)no1", "note": "(stereo not drawn)", "values": [{"measurement": "pIC50", "setting": "[2]", "value": "< 4.21"}]}]}
